According to US6759228B2, “Alkaline protease” (Kao Corporation, priority 1997, dated 2004):
Where two headings read alike, the source gives them in different places. *1 amine or outer side, *2 acyl side, *3 side chain or, on linkers, in order; H or OH if unused. Where a SMILES comes first, the peptide text is derived from it. CO = O=C([*:1])[*:2]

What was measured:
KP43 protease [1] = type: biochemical, Bacillus sp. KSM-KP43; conditions: pH 7
KP1790 protease [2] = type: biochemical, Bacillus sp. KSM-KP1790; conditions: pH 7
KP9860 protease [3] = test: Effects of inhibitors: residual activity, casein method; type: biochemical, Bacillus sp. KSM-KP9860
[4] = tested on: 3 kinds of proteases (KP43, KP1790, KP9860); test: Effects of metal ions, summary for the 3 kinds of proteases; type: biochemical, Bacillus sp.; conditions: 1 mmol/L metal salt, 20 mmol/L boric acid buffer (pH 10), 30° C., 20 minutes
KP1790 protease [5] = test: Effects of metal ions: residual activity, casein method; type: biochemical, Bacillus sp. KSM-KP1790
KP9860 protease [6] = type: biochemical, Bacillus sp. KSM-KP9860
KP43 protease [7] = type: biochemical, Bacillus sp. KSM-KP43
[8] = tested on: all three kinds of proteases (KP43, KP1790, KP9860); type: biochemical, Bacillus sp.; conditions: pH 7
KP1790 protease [9] = test: Effects of surface active agents: residual activity, casein method; type: biochemical, Bacillus sp. KSM-KP1790; conditions: 1% surfactant, 100 mM borate buffer (pH 10.0), 40° C., 4 hours; no treatment = 100%
KP9860 protease [10] = test: as above; type: biochemical, Bacillus sp. KSM-KP9860; conditions: 1% surfactant, 100 mM borate buffer (pH 10.0), 40° C., 4 hours; no treatment = 100%
Protocol: (§1) After 1 mL of 50 mmol/L of various buffer solutions containing 1% (w/v) Casein (Hammerstein: product of Merck Inc.) was maintained at 40° C. for 5 minutes, 0.1 mL of an enzyme solution was added to the solution, followed by incubation at 40° C. for 10 minutes. 2 mL of a TCA solution (0.11 mol/L trichloroacetic acid: 0.22 mol/L sodium acetate: 0.33 mol/L acetic acid) was added to stop the reaction and the mixture was left to stand at room temperature for 10 minutes. Subsequently, acid-denatured protein was filtered (No. 2 filter paper: product of Whattmann). To 0.5 mL of the filtrate, 2.5 mL of alkaline copper reagent (1% (w/v) sodium potassium tartrate: 1% (w/v) copper sulfate: 2% (w/v) sodium carbonate, 0.1 mol/L sodium hydroxide=1:1:100 (v/v)) was added, and after the solution was maintained at 30° C. for 10 minutes, 0.25 mL of diluted phenol reagent (phenol reagent (product of Kanto Chemical) diluted two-fold with deionized water) was added, and after being maintained at 30° C. for 30 minutes, the solution was subjected to an absorbance measurement at 660 nm. The following solution was used as a blank: to the above-described system of enzyme reaction, a reaction termination solution was mixed and then the enzyme solution was added.
(§2) An enzyme solution (7.0×10^−4 mP. U.) was added to 100 mmol/L boric acid buffer solution containing dissolved surfactants in an amount of 1%, and the resultant solution was incubated at 40° C. for 4 hours. The solution was diluted 20-fold with 50 mmol/L boric acid buffer solution (pH 10.0), and residual activity was measured using casein as a substrate.
(§3) Each protease was treated with a variety of 1% surface active agent at 40° C. for 4 hours in […], and residual activity was measured. […] Accordingly, the enzymes are considered to be useful as a detergent component containing surfactants.

KP43 protease [11] = test: as above; type: biochemical, Bacillus sp. KSM-KP43; conditions: 1% surfactant, 100 mM borate buffer (pH 10.0), 40° C., 4 hours; no treatment = 100%
Protocol: as §1, §2, §3

[12] = inhibitor 5 mM, 10 mmol/L phosphoric acid buffer (pH 7.0), 30° C., 20 minutes, no inhibitor = 100%
[13] = 1 mM metal salt, 20 mM borate buffer (pH 10.0), 30° C., 20 minutes, no metal salt = 100%
[14] = inhibitor 0.1 mM, 10 mmol/L phosphoric acid buffer (pH 7.0), 30° C., 20 minutes, no inhibitor = 100%

Compound: O[C@H](CS)[C@H](O)CS (racemic) [DTT, dithiothreitol]
- Residual activity (%) KP43 (KP43 protease [1]): 104%
- Residual activity (%) KP1790 (KP1790 protease [2]): 102%
- Residual activity (%) KP9860 (KP9860 protease [3]; [12]): 105%

Compound: O=[N+]([O-])[O-].[Ag+] [AgNO3, silver nitrate]
- effect of metal salt on activity [4]: inhibited
- Residual activity (%) KP1790 (KP1790 protease [5]; [13]): 70%
- Residual activity (%) KP9860 (KP9860 protease [6]; [13]): 45%
- Residual activity (%) KP43 (KP43 protease [7]; [13]): 66%

Compound: CC(C)[C@H](NC(=O)[C@H](CCCNC(=N)N)NC(=O)N[C@@H](Cc1ccccc1)C(=O)O)C(=O)N[C@H](C=O)CCCNC(=N)N [Antipine] ({Phe-CO}-Arg-Val-Arg-aldehyde)
- effect of inhibitor on activity [8]: not found
- Residual activity (%) KP43 (KP43 protease [1]): 103%
- Residual activity (%) KP1790 (KP1790 protease [2]): 99%
- Residual activity (%) KP9860 (KP9860 protease [3]; [14]): 97%

Compound: [Ca+2].[Cl-].[Cl-] [CaCl2, calcium chloride]
- Residual activity (%) KP1790 (KP1790 protease [5]; pH 10): 95%
- Residual activity (%) KP9860 (KP9860 protease [6]; pH 10): 101%
- Residual activity (%) KP43 (KP43 protease [7]; pH 10): 97%

Compound: CC(C)C[C@H](NC(=O)[C@@H](NC(=O)N[C@@H](Cc1ccccc1)C(=O)O)[C@@H]1CCN=C(N)N1)C(=O)N[C@H](C=O)Cc1ccccc1 [Chymostatin]
- effect of inhibitor on activity [8]: inhibited
- Residual activity (%) KP43 (KP43 protease [1]): 87%
- Residual activity (%) KP1790 (KP1790 protease [2]): 87%
- Residual activity (%) KP9860 (KP9860 protease [3]; pH 7): 80%

Compound: [Cl][Cu][Cl] [CuCl2]
- Residual activity (%) KP1790 (KP1790 protease [5]; [13]): 96%
- Residual activity (%) KP9860 (KP9860 protease [6]; [13]): 94%
- Residual activity (%) KP43 (KP43 protease [7]; [13]): 91%

Compound: CC(C)C[C@H](NC(=O)[C@H]1O[C@@H]1C(=O)O)C(=O)NCCCCN=C(N)N [E-64]
- Residual activity (%) KP43 (KP43 protease [1]): 104%
- Residual activity (%) KP1790 (KP1790 protease [2]): 99%
- Residual activity (%) KP9860 (KP9860 protease [3]; pH 7): 103%

Compound: O=C(O)CN(CCN(CC(=O)O)CC(=O)O)CC(=O)O [EDTA, ethylenediaminetetraacetic acid]
- Residual activity (%) KP43 (KP43 protease [1]): 110%
- Residual activity (%) KP1790 (KP1790 protease [2]): 97%
- Residual activity (%) KP9860 (KP9860 protease [3]; [12]): 101%

Compound: O=C(O)CN(CCOCCOCCN(CC(=O)O)CC(=O)O)CC(=O)O [EGTA, ethyleneglycoltetraacetic acid]
- Residual activity (%) KP43 (KP43 protease [1]): 92%
- Residual activity (%) KP1790 (KP1790 protease [2]): 91%
- Residual activity (%) KP9860 (KP9860 protease [3]; [12]): 90%

Compound: CC(C)C[C@H](NC(=O)N[C@H](C(=O)N[C@@H](CCC(N)=O)C(=O)N[C@@H](C)C=O)[C@@H]1CCNC(=N)N1)C(=O)O [Elastatinal]
- Residual activity (%) KP43 (KP43 protease [1]): 99%
- Residual activity (%) KP1790 (KP1790 protease [2]): 102%
- Residual activity (%) KP9860 (KP9860 protease [3]; [14]): 102%

Compound: [Cl][Fe]([Cl])[Cl] [FeCl3]
- Residual activity (%) KP1790 (KP1790 protease [5]; [13]): 113%
- Residual activity (%) KP9860 (KP9860 protease [6]; [13]): 96%
- Residual activity (%) KP43 (KP43 protease [7]; [13]): 93%

Compound: [Cl][Hg][Cl] [HgCl2, mercury chloride]
- effect of metal salt on activity [4]: inhibited
- Residual activity (%) KP1790 (KP1790 protease [5]; [13]): 37%
- Residual activity (%) KP9860 (KP9860 protease [6]; [13]): 33%
- Residual activity (%) KP43 (KP43 protease [7]; [13]): 38%

Compound: CC(=O)N[C@@H](CC(C)C)C(=O)N[C@@H](CC(C)C)C(=O)N[C@H](C=O)CCCNC(=N)N [Leupeptin]
- effect of inhibitor on activity [8]: not found
- Residual activity (%) KP43 (KP43 protease [1]): 102%
- Residual activity (%) KP1790 (KP1790 protease [2]): 101%
- Residual activity (%) KP9860 (KP9860 protease [3]; pH 7): 93%

Compound: [Cl-].[Cl-].[Mg+2] [MgCl2]
- Residual activity (%) KP1790 (KP1790 protease [5]; [13]): 103%
- Residual activity (%) KP9860 (KP9860 protease [6]; [13]): 100%
- Residual activity (%) KP43 (KP43 protease [7]; [13]): 92%

Compound: CCN1C(=O)C=CC1=O [NEM, N-ethylmaleimide]
- Residual activity (%) KP43 (KP43 protease [1]): 97%
- Residual activity (%) KP1790 (KP1790 protease [2]): 100%
- Residual activity (%) KP9860 (KP9860 protease [3]; pH 7): 100%

Compound: CCCCCCCCCCCCOS(=O)(=O)[O-].[Na+] [Na dodecyl sulfate (SDS), Na dodecyl sulfate]
- Residual activity KP1790 (KP1790 protease [9]): 97%
- Residual activity KP9860 (KP9860 protease [10]): 103%
- Residual activity KP43 (KP43 protease [11]): 104%

Compound: [Cl][Ni][Cl] [NiCl2]
- Residual activity (%) KP1790 (KP1790 protease [5]; [13]): 95%
- Residual activity (%) KP9860 (KP9860 protease [6]; [13]): 96%
- Residual activity (%) KP43 (KP43 protease [7]; [13]): 92%

Compound: O=C(O)c1cc[c]([Hg][Cl])cc1 [PCMB, p-chloromercury benzoate]
- Residual activity (%) KP43 (KP43 protease [1]): 125%
- Residual activity (%) KP1790 (KP1790 protease [2]): 115%
- Residual activity (%) KP9860 (KP9860 protease [3]; pH 7): 126%

Compound: O=S(=O)(F)Cc1ccccc1 [PMSF, phenylmethanesulfonyl fluoride]
- effect of inhibitor on activity [8]: inhibited
- Residual activity (%) KP43 (KP43 protease [1]): 0%
- Residual activity (%) KP1790 (KP1790 protease [2]): 0%
- Residual activity (%) KP9860 (KP9860 protease [3]; pH 7): 0%

Compound: [Cl-].[Cl-].[Zn+2] [ZnCl2]
- Residual activity (%) KP1790 (KP1790 protease [5]; [13]): 94%
- Residual activity (%) KP9860 (KP9860 protease [6]; [13]): 91%
- Residual activity (%) KP43 (KP43 protease [7]; [13]): 85%

Compound: c1cnc2c(c1)ccc1cccnc12 [o-Phenanthroline]
- Residual activity (%) KP43 (KP43 protease [1]): 100%
- Residual activity (%) KP1790 (KP1790 protease [2]): 103%
- Residual activity (%) KP9860 (KP9860 protease [3]; [12]): 100%

Compound: CoCl2
- Residual activity (%) KP1790 (KP1790 protease [5]; pH 10): 101%
- Residual activity (%) KP9860 (KP9860 protease [6]; pH 10): 98%
- Residual activity (%) KP43 (KP43 protease [7]; pH 10): 91%

Compound: Na alkyl sulfate [Na alkyl sulfate (AS)]
- Residual activity KP1790 (KP1790 protease [9]): 107%
- Residual activity KP9860 (KP9860 protease [10]): 107%
- Residual activity KP43 (KP43 protease [11]): 113%

Compound: Na linear alkylbenzenesulfonate [Na linear alkylbenzenesulfonate (LAS)]
- Residual activity KP1790 (KP1790 protease [9]): 88%
- Residual activity KP9860 (KP9860 protease [10]): 100%
- Residual activity KP43 (KP43 protease [11]): 100%

Compound: Na polyoxyethylene alkylsulfate [Na polyoxyethylene alkylsulfate (ES)]
- Residual activity KP1790 (KP1790 protease [9]): 102%
- Residual activity KP9860 (KP9860 protease [10]): 104%
- Residual activity KP43 (KP43 protease [11]): 101%

Compound: Na α-olefinsulfonate [Na α-olefinsulfonate (AOS)]
- Residual activity KP1790 (KP1790 protease [9]): 111%
- Residual activity KP9860 (KP9860 protease [10]): 100%
- Residual activity KP43 (KP43 protease [11]): 100%

Compound: α-Sulfofatty acid ester [α-Sulfofatty acid ester (α-SFE)]
- Residual activity KP1790 (KP1790 protease [9]): 113%
- Residual activity KP9860 (KP9860 protease [10]): 105%
- Residual activity KP43 (KP43 protease [11]): 112%
